Measurements published in patent US20240150334A1, “HSD17B13 INHIBITORS AND/OR DEGRADERS” (Pfizer Inc., priority 2022, published 2024).
pIC50: −log10 of the molar value. Where a name gives a salt, the structure may show the parent alone.

Target: wild type human HSD17B13 (Homo sapiens (Human), UniProt Q7Z5P4)
Experiment: HEK_Beta-Est LCMS_IC50_Tekcel, whole-cell HEK-HSD17B13 inhibition assay, estrone production by LCMS
Type: cell-based
Details: geometric mean, HEK cells stably expressing wild type human HSD17B13, 25 μM FAC beta-estradiol, read-out: HEK_Beta-Est LCMS_IC50—Tekcel GMean IC50
Description: HEK_Beta-Est LCMS_IC50_Tekcel
Inhibition potency of test compounds was determined using a whole-cell HEK-HSD17B13 inhibition assay, utilizing a LCMS readout.
HSD17B13 uses the oxidized form of nicotinamide adenine dinucleotide (NAD+) as a cofactor during metabolism of beta-estradiol (substrate), converting NAD+ to the reduced form (NADH) and beta-estradiol to its product (estrone). Estrone production is quantified by LCMS, and used as a measure of HSD17B13 enzyme activity.
([…]: 5% CO2). […] Growth media was then removed from the cell plates and replaced with 10 μL of 2×FAC test compound, and incubated for 1 hour (with lid) at 37° C. […] The reaction was incubated for 2 hours (with lid) at 37° C. […] Amount of product (estrone) was then quantified by LCMS. Data expressed as product area ratio (PAR) were then normalized to control wells using Activity Base (IDBS). Zero percent effect (ZPE) was defined as PAR generated from uninhibited HSD17B13 (vehicle control).

Chain of wild type human HSD17B13 (Q7Z5P4 20-300): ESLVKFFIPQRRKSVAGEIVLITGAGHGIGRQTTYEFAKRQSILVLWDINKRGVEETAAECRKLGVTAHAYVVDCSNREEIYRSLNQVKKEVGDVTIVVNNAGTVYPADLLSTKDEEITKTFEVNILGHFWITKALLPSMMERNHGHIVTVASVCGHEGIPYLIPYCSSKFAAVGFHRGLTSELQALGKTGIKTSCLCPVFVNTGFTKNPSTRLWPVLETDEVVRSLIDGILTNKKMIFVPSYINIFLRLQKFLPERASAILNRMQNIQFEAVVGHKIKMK

pIC50	SMILES
6.43	Cn1cc(-c2ccc3cn([C@H]4CC[C@H](CNC(=O)c5cc(F)c(O)c(F)c5)CC4)nc3c2)ccc1=O [Example 104, 3,5-difluoro-4-hydroxy-N-({(1r,4r)-4-[6-(1-methyl-6-oxo-1,6-dihydropyridin-3-yl)-2H-indazol-2-yl]cyclohexyl}methyl) benzamide]
7.01	O=C(NC[C@]12CC[C@](c3nc(-c4ncc(C(F)(F)F)cn4)no3)(CC1)CC2)c1cc(F)c(O)c(F)c1 [Example 203, 3,5-difluoro-4-hydroxy-N-[(4-{3-[5-(trifluoromethyl)pyrimidin-2-yl]-1,2,4-oxadiazol-5-yl}bicyclo[2.2.2]octan-1-yl)methyl]benzamide]
6.82	Cn1cc(-c2ccc3cn([C@]45CC[C@](CNC(=O)c6cc(F)c(O)c(F)c6F)(CC4)CC5)nc3c2)cn1 [Example 209, 2,3,5-trifluoro-4-hydroxy-N-({4-[6-(1-methyl-1H-pyrazol-4-yl)-2H-indazol-2-yl]bicyclo[2.2.2]octan-1-yl}methyl)benzamide]
6.80	Cc1nsc(-c2ccc3cn([C@H]4CC[C@H](CNC(=O)c5cc(F)c(O)c(F)c5)CC4)nc3c2)n1 [Example 107, 3,5-difluoro-4-hydroxy-N-({(1r,4r)-4-[6-(3-methyl-1,2,4-thiadiazol-5-yl)-2H-indazol-2-yl]cyclo-hexyl}methyl) benzamide]
7.04	Cn1cc(-c2ccc3nn([C@H]4CC[C@H](CNC(=O)c5cc(F)c(O)c(F)c5)CC4)cc3c2)cn1 [Example 159, 3,5-difluoro-4-hydroxy-N-({(1r,4r)-4-[5-(1-methyl-1H-pyrazol-4-yl)-2H-indazol-2-yl]cyclohexyl}methyl) benzamide, trifluoroacetate salt]
6.57	COc1nc(-c2ccc3cn([C@H]4CC[C@H](CNC(=O)c5cc(F)c(O)c(F)c5)CC4)nc3c2)nn1C [Example 86, 3,5-difluoro-4-hydroxy-N-({(1r,4r)-4-[6-(5-methoxy-1-methyl-1H-1,2,4-triazol-3-yl)-2H-indazol-2-yl]cyclohexyl}methyl) benzamide]
7.07	O=C(NC[C@H]1CC[C@H](n2cc3ccc(-c4cncs4)cc3n2)CC1)c1cc(F)c(O)c(F)c1 [Example 96, 3,5-difluoro-4-hydroxy-N-({(1r,4r)-[6-(1,3-thiazol-5-yl)-2H-indazol-2-yl]cyclohexyl}methyl)benzamide]
6.72	COc1cccc(-c2ccc3cn([C@H]4CC[C@H](CNC(=O)c5cc(F)c(O)c(F)c5)CC4)nc3c2)n1 [Example 116, 3,5-difluoro-4-hydroxy-N-({(1r,4r)-4-[6-(6-methoxy-pyridin-2-yl)-2H-indazol-2-yl]cyclohexyl}methyl) benzamide, trifluoroacetate salt]
6.55	O=C(NC[C@H]1CC[C@H](n2cc3ccc(-c4ncc(C(F)F)s4)cc3n2)CC1)c1cc(F)c(O)c(F)c1 [Example 91, N-{[(1r,4r)-4-{6-[5-(difluoromethyl)-1,3-thiazol-2-yl]-2H-indazol-2-yl}cyclohexyl]methyl}-3,5-difluoro-4-hydroxybenzamide]
6.66	O=C(NC[C@]12CC[C@](n3cc4ccc(Br)cc4n3)(CC1)CC2)c1cc(F)c(O)c(F)c1 [Example 205, N-{[4-(6-bromo-2H-indazol-2-yl)bicyclo[2.2.2]octan-1-yl]methyl}-3,5-difluoro-4-hydroxybenzamide]
6.39	O=C(NC[C@H]1CC[C@H](n2cc3ccc(-n4ccnc4)cc3n2)CC1)c1cc(F)c(O)c(F)c1F [Example 166, 2,3,5-trifluoro-4-hydroxy-N-({(1r,4r)-4-[6-(1H-imidazol-1-yl)-2H-indazol-2-yl]cyclohexyl}methyl) benzamide, trifluoroacetate salt]
6.77	Cc1ncc(-c2ccc3cn([C@H]4CC[C@H](CNC(=O)c5cc(F)c(O)c(F)c5)CC4)nc3c2)s1 [Example 88, 3,5-difluoro-4-hydroxy-N-({(1r,4r)-4-[6-(2-methyl-1,3-thiazol-5-yl)-2H-indazol-2-yl]cyclohexyl}methyl)benzamide]
6.72	O=C(NC[C@H]1CC[C@H](n2cc3ccc(-c4cnc(C(F)(F)F)cn4)cc3n2)CC1)c1cc(F)c(O)c(F)c1 [Example 78, 3,5-difluoro-4-hydroxy-N-{[(1r,4r)-4-{6-[5-(trifluoromethyl)pyrazin-2-yl]-2H-indazol-2-yl}cyclohexyl]methyl} benzamide]
6.64	O=C(NC[C@H]1CC[C@H](n2cc3ccc(-c4cnn(C(CO)CCl)c4)cc3n2)CC1)c1cc(F)c(O)c(F)c1 (stereo partly shown) [Example 164, N-{[(1r,4r)-4-{6-[1-(1-chloro-3-hydroxypropan-2-yl)-1H-pyrazol-4-yl]-2H-indazol-2-yl}cyclohexyl]methyl}-3,5-difluoro-4-hydroxybenzamide, trifluoroacetate salt]
6.62	COc1ccnc(-c2ccc3cn([C@H]4CC[C@H](CNC(=O)c5cc(F)c(O)c(F)c5)CC4)nc3c2)n1 [Example 95, 3,5-difluoro-4-hydroxy-N-({(1r,4r)-4-[6-(4-methoxypyrimidin-2-yl)-2H-indazol-2-yl]cyclohexyl}methyl)benzamide]
6.82	O=C(NC[C@]12CC[C@](n3cc4ccc(-c5cncnc5)cc4n3)(CC1)CC2)c1cc(F)c(O)c(F)c1 [Example 206, 3,5-difluoro-4-hydroxy-N-({4-[6-(pyrimidin-5-yl)-2H-indazol-2-yl]bicyclo [2.2.2]octan-1-yl}methyl)benzamide]
6.70	Cc1nnc(-c2ccc3cn([C@H]4CC[C@H](CNC(=O)c5cc(F)c(O)c(F)c5)CC4)nc3c2)s1 [Example 102, 3,5-difluoro-4-hydroxy-N-({(1r,4r)-4-[6-(5-methyl-1,3,4-thiadiazol-2-yl)-2H-indazol-2-yl]cyclohexyl}methyl) benzamide, ammonium salt]
6.85	O=C(NC[C@H]1CC[C@H](n2cc3ccc(-c4ncc5c(n4)COC5)cc3n2)CC1)c1cc(F)c(O)c(F)c1 [Example 101, N-({(1r,4r)-4-[6-(5,7-dihydrofuro[3,4-d]pyrimidin-2-yl)-2H-indazol-2-yl]cyclohexyl}methyl)-3,5-difluoro-4-hydroxybenzamide]
6.72	Cc1cnc(-c2ccc3cn([C@H]4CC[C@H](CNC(=O)c5cc(F)c(O)c(F)c5)CC4)nc3c2)s1 [Example 115, 3,5-difluoro-4-hydroxy-N-({(1r,4r)-4-[6-(5-methyl-1,3-thiazol-2-yl)-2H-indazol-2-yl]cyclohexyl}methyl) benzamide]
7.09	O=C(NC[C@H]1CC[C@H](n2cc3ccc(-c4cnoc4)cc3n2)CC1)c1cc(F)c(O)c(F)c1 [Example 111, 3,5-difluoro-4-hydroxy-N-({(1r,4r)-4-[6-(1,2-oxazol-4-yl)-2H-indazol-2-yl]cyclohexyl}methyl) benzamide]
6.43	Cn1cc(-c2ccc3cn([C@H]4CC[C@H](CNC(=O)c5cc(F)c(O)c(F)c5)CC4)nc3c2)nn1 [Example 79, 3,5-difluoro-4-hydroxy-N-({(1r,4r)-4-[6-(1-methyl-1H-1,2,3-triazol-4-yl)-2H-indazol-2-yl]cyclohexyl}methyl) benzamide]
6.77	COc1nccc(-c2ccc3cn([C@H]4CC[C@H](CNC(=O)c5cc(F)c(O)c(F)c5)CC4)nc3c2)n1 [Example 109, 3,5-difluoro-4-hydroxy-N-({(1r,4r)-4-[6-(2-methoxy-pyrimidin-4-yl)-2H-indazol-2-yl]cyclohexyl}methyl) benzamide]
